Experiment [1] in a line: ORAC-Total (ORAClipo + ORAChydro). Particulars: ORAClipo + ORAChydro. The text has this:
An ORAC method for lipophilic antioxidants was further developed and validated using fluorescein as the fluorescent probe (Prior et al. 2003 J. Agric. Food Chem. 51: 3273-3279). This method has the advantage that similar assay conditions and standards can be used for both hydrophilic and lipophilic antioxidant components, such that the two values can be added together to obtain a total antioxidant capacity. In the present work, the ORAC value is expressed as the sum of values of both the water-soluble and fat-soluble parts. Green tea catechins (Polyphenon 60) were used as the control with the highest ORAC value among edible plants. Vitamin C and vitamin E were used as controls for water- and fat-soluble molecules, respectively. […] The SOAC scores are not included in this figure; ORAC values used are the sum of lipophilic and hydrophilic results. For each assay category, scaling was made logarithmic so that the plot on the chart resembles the associated rating. […] The larger the spatial area, the higher the overall antioxidative capacity. […] Both hydrophilic and lipophilic oxygen radical absorbance capacity (ORAC) assays were carried out at Brunswick Laboratory (Wareham, Mass.) based on the modified ORACfl method reported by Ou et al. (2001 J. Agric. Food Chem. 49: 4619-4626, 2002 J. Agr. Food Chem. 50: 3122-3128). Trolox, a water-soluble vitamin E analog, was used as the calibration standard. The data are expressed as mmole of Trolox equivalents per gram (mmol TE/g). The acceptable precision of the ORAC assay is a 15% relative standard deviation. Caffeic acid was used as the calibration standard. Hydroxyl radical ORAC (HOR-AC) is expressed as mmole caffeic acid equivalent per gram (mmol CAE/g). Trolox was used as the calibration standard. The peroxyl nitrite ORAC (NORAC) result is expressed as mmol TE/g. Alpha-tocopherol (vitamin E) was used as the calibration standard, and the singlet oxygen absorbance capacity (SOAC) result is expressed as mmole a-tocopherol equivalent (mmol VtE) per gram (Aubry et al. 1989). The abbreviation for the 1,1-diphenyl-2-picrylhydrazyl radical is DPPH. Radical-scavenging activity was measured by the change in absorbance at 517 nm with the DPPH result expressed as mmol TE/g. Similarly, FRAP is an abbreviation for the ferric reducing antioxidative power method, which utilizes chemical conversion of the yellow Fe 3+-2,4,6-tripyridyl s-triazine (TPTZ) complex to the blue Fe 2+-TPTZ complex by electron donation under acidic conditions (Okada and Okada 1998 J. Agric. Food Chem. 46: 401-406). The FRAP result is expressed as mmol TE/g (Ou et al. 2002b). Superoxide dismutase (SOD) was used as a calibration standard; the SOD result is expressed as kilo unit SOD equivalent (kunitSODeq) per gram.

Experiment [2] is described as follows: Lipophilic oxygen radical absorbance capacity (ORAC-L). Particulars: lipid soluble antioxidant capacity; expressed as mmol TE/g; — = No activity detected. The text has this: Thus the ORAC method has become a widely used method for assessing antioxidant capacity in biological samples and foods. However, because of its inability to measure both hydrophilic and lipophilic antioxidants, the method has its limitations. An ORAC method for lipophilic antioxidants was further developed and validated using fluorescein as the fluorescent probe (Prior et al. 2003 J. Agric. Food Chem. 51: 3273-3279). […] In the present work, the ORAC value is expressed as the sum of values of both the water-soluble and fat-soluble parts. […] Both hydrophilic and lipophilic oxygen radical absorbance capacity (ORAC) assays were carried out at Brunswick Laboratory (Wareham, Mass.) based on the modified ORACfl method reported by Ou et al. (2001 J. Agric. Food Chem. 49: 4619-4626, 2002 J. Agr. Food Chem. 50: 3122-3128). Trolox, a water-soluble vitamin E analog, was used as the calibration standard. The data are expressed as mmole of Trolox equivalents per gram (mmol TE/g). […] Hydroxyl radical ORAC (HOR-AC) is expressed as mmole caffeic acid equivalent per gram (mmol CAE/g). […] The peroxyl nitrite ORAC (NORAC) result is expressed as mmol TE/g. […] Radical-scavenging activity was measured by the change in absorbance at 517 nm with the DPPH result expressed as mmol TE/g. […] The FRAP result is expressed as mmol TE/g (Ou et al. 2002b).

Experiment [3] is described as follows: Singlet oxygen absorbance capacity (SOAC). Particulars: expressed as mmol VtE/g. The text has this: [table] Alpha-tocopherol (vitamin E) was used as the calibration standard, and the SOAC result is expressed as mmol VtE/g. The higher the SOAC score, the higher the singlet oxygen-quenching capacity. […] Singlet oxygen has been postulated to be a highly reactive and toxic intermediate against skin. It is known that the acne-causing bacterium P. acnes naturally produces high amounts of intracellular porphyrins, mostly coproporphyrin (Ashkenazi et al. 2003). Singlet oxygen can be generated on the skin surface from P. acnes porphyrins under sunlight and induce serious skin damage ([…] et al. 1996 Biochem. Biophys. Res. Commun. 223: 578-582). Various skin disorders progress through a singlet oxygen-dependent mechanism, including acne, atopic dermatitis, and skin aging. Both hydrophilic and lipophilic oxygen radical absorbance capacity (ORAC) assays were carried out at Brunswick Laboratory (Wareham, Mass.) based on the modified ORACfl method reported by Ou et al. (2001 J. Agric. Food Chem. 49: 4619-4626, 2002 J. Agr. Food Chem. 50: 3122-3128). Trolox, a water-soluble vitamin E analog, was used as the calibration standard. The data are expressed as mmole of Trolox equivalents per gram (mmol TE/g). The acceptable precision of the ORAC assay is a 15% relative standard deviation. Caffeic acid was used as the calibration standard. Hydroxyl radical ORAC (HOR-AC) is expressed as mmole caffeic acid equivalent per gram (mmol CAE/g). Trolox was used as the calibration standard. The peroxyl nitrite ORAC (NORAC) result is expressed as mmol TE/g. Alpha-tocopherol (vitamin E) was used as the calibration standard, and the singlet oxygen absorbance capacity (SOAC) result is expressed as mmole a-tocopherol equivalent (mmol VtE) per gram (Aubry et al. 1989). […] Radical-scavenging activity was measured by the change in absorbance at 517 nm with the DPPH result expressed as mmol TE/g. […] The FRAP result is expressed as mmol TE/g (Ou et al. 2002b). Superoxide dismutase (SOD) was used as a calibration standard; the SOD result is expressed as kilo unit SOD equivalent (kunitSODeq) per gram.

For `O=C1O[C@H]([C@@H](O)CO)C(O)=C1O` [Vitamin C, reference compound], the “ORAC-Total (Trolox equivalent)” value in experiment [1] amounted to 1.4 Trolox equivalent.

With `Cc1c(C)c2c(c(C)c1O)CC[C@@](C)(CCC[C@H](C)CCC[C@H](C)CCCC(C)C)O2` [Vitamin E, Alpha-tocopherol, reference compound], the “ORAC-Total (Trolox equivalent)” value in experiment [1] was 0.75 Trolox equivalent. The “ORAC-L (Trolox equivalent)” value in experiment [2] amounted to 0.75 Trolox equivalent. The “SOAC (Vitamin E equivalent)” value in experiment [3] came out at 1.0 Vitamin E equivalent.
